Assay results published in patent US12495798B2, “Nicotinamide compound and herbicidal composition comprising compound” (KOREA RESEARCH INSTITUTE OF CHEMICAL TECHNOLOGY, priority 2019, dated 2025).

Key:
Type in all cases: in vivo
[1] = system: black nightshade; assay: Herbicidal activity test against upland field weeds (foliar treatment test); set-up: key to Foliar treatment herbicidal activity, black nightshade: 0 (no control); 100 (complete control); conditions: 50 g ai/ha, scale 0-100; for pest or weed control at 50 g/ha: Solanum nigrum
In short: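 Visual 0–100 control ratings relative to untreated plants, taken 14 (or 21) days after spraying foliage at 50 or 75 g a.i./ha. Spray solution: 50% acetone with 0.1% Tween-20; plants kept in greenhouse at 30±5 °C, 14 h light/10 h dark.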

[2] = system: fall panicum; assay: Herbicidal activity test against upland field weeds (soil treatment test); set-up: key to Soil treatment herbicidal activity, Fall panicum: 0 (no control); 100 (complete control); conditions: 50 g ai/ha, scale 0 (no control) to 100 (complete control); for pest or weed control at 50 g/ha: Panicum dichotomiflorum
In short: (§1)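 Weed control scored visually on a 0 (none) to 100 (complete) scale versus untreated pots at 14 or 21 days in greenhouse (30±5 °C, 14 h light). Test compounds, 50 or 75 g a.i./ha in 50% acetone/0.1% Tween-20, hand-sprayed onto soil one day post-sowing.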

[3] = system: black nightshade; assay: as above; set-up: key to Soil treatment herbicidal activity, black nightshade: 0 (no control); 100 (complete control); conditions: 50 g ai/ha, scale 0 (no control) to 100 (complete control); for pest or weed control at 50 g/ha: Solanum nigrum
In short: as §1

SMILES | Foliar treatment herbicidal activity, black nightshade [1] | pest or weed control at 50 g/ha [2] [%] | Soil treatment herbicidal activity, black nightshade [3] | Soil treatment herbicidal activity, Fall panicum [2] | pest or weed control at 50 g/ha [3] [%] | pest or weed control at 50 g/ha [1] [%]
Cn1ncnc1COc1nc(C(F)(F)F)ccc1C(=O)Nc1nnnn1C [Compound No. 1-45, 2-((1-methyl-1H-1,2,4-triazol-5-yl)methoxy)-N-(1-methyl-1H-tetrazol-5-yl)-6-(trifluoromethyl)nicotinamide] | 100 | 98 | 100 | – | – | –
Cn1nnc(CSCc2nc(C(F)F)ccc2C(=O)Nc2nnnn2C)n1 [Compound No. 2-108, 6-(difluoromethyl)-N-(1-methyl-1H-tetrazol-5-yl)-2-((((2-methyl-2H-tetrazol-5-yl)methyl)thio)methyl)nicotinamide] | 100 | – | – | 0 | 30 | –
Cn1nnc(COc2nc(C(F)(F)F)ccc2C(=O)Nc2nnnn2C)n1 [Compound No. 2-1, N-(1-methyl-1H-tetrazol-5-yl)-2-((2-methyl-2H-tetrazol-5-yl)methoxy)-6-(trifluoromethyl)nicotinamide] | 100 | – | – | 0 | 90 | –
Cn1nnc(CS(=O)(=O)Cc2nc(C(F)(F)F)ccc2C(=O)Nc2nnnn2C)n1 [Compound No. 2-105, N-(1-methyl-1H-tetrazol-5-yl)-2-((((2-methyl-2H-tetrazol-5-yl)methyl)sulfonyl)methyl)-6-(trifluoromethyl)nicotinamide] | 100 | – | – | 0 | 60 | –
Cn1nnc(CSCc2nc(C(F)(F)F)ccc2C(=O)N(C(=O)c2ccccc2)c2nnnn2C)n1 [Compound No. 2-109, N-benzoyl-N-(1-methyl-1H-tetrazol-5-yl)-2-((((2-methyl-2H-tetrazol-5-yl)methyl)thio)methyl)-6-(trifluoromethyl)nicotinamide] | 100 | – | 100 | 0 | – | –
Cn1nnc(COCc2nc(C(F)(F)F)ccc2C(=S)Nc2nnnn2C)n1 [Compound No. 2-106, N-(1-methyl-1H-tetrazol-5-yl)-2-(((2-methyl-2H-tetrazol-5-yl)methoxy)methyl)-6-(trifluoromethyl)pyridin-3-carbothioamide] | – | – | – | 100 | – | 95
Cc1nc(COCc2nc(C(F)(F)F)ccc2C(=O)Nc2nnnn2C)nn1C [Compound No. 2-116, 2-(((1,5-dimethyl-1H-1,2,4-triazol-3-yl)methoxy)methyl)-N-(1-methyl-1H-tetrazol-5-yl)-6-(trifluoromethyl)nicotinamide] | 100 | – | – | – | – | –
Cn1nnc(CSCc2nc(C(F)(F)F)ccc2C(=O)N(c2nnnn2C)S(C)(=O)=O)n1 [Compound No. 2-110, N-(1-methyl-1H-tetrazol-5-yl)-2-((((2-methyl-2H-tetrazol-5-yl)methyl)thio)methyl)-N-(methylsulfonyl)-6-(trifluoromethyl)nicotinamide] | 100 | – | – | – | – | –
Cn1nnc(COCc2nc(C(F)(F)F)ccc2C(=O)Nc2nnnn2C)n1 [Compound No. 2-59, N-(1-methyl-1H-tetrazol-5-yl)-2-(((2-methyl-2H-tetrazol-5-yl)methoxy)methyl)-6-(trifluoromethyl)nicotinamide] | 100 | – | 100 | 100 | – | –
Cn1nnc(CSCc2nc(C(F)(F)F)ccc2C(=O)Nc2nnnn2C)n1 [Compound No. 2-102, N-(1-methyl-1H-tetrazol-5-yl)-2-((((2-methyl-2H-tetrazol-5-yl)methyl)thio)methyl)-6-(trifluoromethyl)nicotinamide] | 100 | – | 100 | 100 | – | –
Cn1nnc(COCc2nc(C(F)(F)F)ccc2C(=O)N(C(=O)c2ccccc2)c2nnnn2C)n1 [Compound No. 2-68, N-benzoyl-N-(1-methyl-1H-tetrazol-5-yl)-2-(((2-methyl-2H-tetrazol-5-yl)methoxy)methyl)-6-(trifluoromethyl)nicotinamide] | 100 | 90 | – | – | – | –
CCOC(=O)OC(C)N(C(=O)c1ccc(C(F)(F)F)nc1COCc1nnn(C)n1)c1nnnn1C (centres unmarked) [Compound No. 4-8, ethyl(1-(N-(1-methyl-1H-tetrazol-5-yl)-2-(((2-methyl-2H-tetrazol-5-yl)methoxy)methyl)-6-(trifluoromethyl)nicotinamido)ethyl)carbonate] | 100 | – | 100 | 0 | – | –
CCOC(=O)OC(C)n1nnn(C)c1=NC(=O)c1ccc(C(F)(F)F)nc1CSCc1nnn(C)n1 (centres unmarked) [Compound No. 4-10, ethyl (1-(4-methyl-5-((2-((((2-methyl-2H-tetrazol-5-yl)methyl)thio)methyl)-6-(trifluoromethyl)nicotinoyl)imino)-4,5-dihydro-1H-tetrazol-1-yl)ethyl)carbonate] | 100 | – | 100 | 40 | – | –
COc1nc(COCc2nc(C(F)(F)F)ccc2C(=O)Nc2nnnn2C)nn1C [Compound No. 2-129, 2-(((5-methoxy-1-methyl-1H-1,2,4-triazol-3-yl)methoxy)methyl)-N-(1-methyl-1H-tetrazol-5-yl)-6-(trifluoromethyl)nicotinamide] | 100 | – | 100 | 0 | – | –
Cc1nc(COCc2nc(C(F)(F)F)ccc2C(=S)Nc2nnnn2C)nn1C [Compound No. 2-117, 2-(((1,5-dimethyl-1H-1,2,4-triazol-3-yl)methoxy)methyl)-N-(1-methyl-1H-tetrazol-5-yl)-6-(trifluoromethyl)pyridin-3-carbothioamide] | 100 | – | – | – | – | –
CON(Cc1nnn(C)n1)c1nc(C(F)(F)F)ccc1C(=O)Nc1nnnn1C [Compound No. 2-30, 2-(methoxy((2-methyl-2H-tetrazol-5-yl)methyl)amino)-N-(1-methyl-1H-tetrazol-5-yl)-6-(trifluoromethyl)nicotinamide] | 100 | – | 100 | 100 | – | –
COC(=O)OC(C)N(C(=O)c1ccc(C(F)(F)F)nc1COCc1nnn(C)n1)c1nnnn1C (centres unmarked) [Compound No. 4-4, methyl(1-(N-(1-methyl-1H-tetrazol-5-yl)-2-(((2-methyl-2H-tetrazol-5-yl)methoxy)methyl)-6-(trifluoromethyl)nicotinamido)ethyl)carbonate] | 100 | – | 100 | – | – | –
Cn1nc(COCc2nc(C(F)(F)F)ccc2C(=O)Nc2nnnn2C)nc1Br [Compound No. 2-136, 2-(((5-bromo-1-methyl-1H-1,2,4-triazol-3-yl)methoxy)methyl)-N-(1-methyl-1H-tetrazol-5-yl)-6-(trifluoromethyl)nicotinamide] | – | – | – | – | – | 95
Cn1nnc(COCc2nc(C(F)(F)C(F)(F)F)ccc2C(=O)Nc2nnnn2C)n1 [Compound No. 2-81, N-(1-methyl-1H-tetrazol-5-yl)-2-(((2-methyl-2H-tetrazol-5-yl)methoxy)methyl)-6-(perfluoroethyl)nicotinamide] | – | 98 | – | – | – | 95
CON(Cc1nnn(C)n1)Cc1nc(C(F)(F)F)ccc1C(=O)Nc1nnnn1C [Compound No. 2-97, 2-((methoxy((2-methyl-2H-tetrazol-5-yl)methyl)amino)methyl)-N-(1-methyl-1H-tetrazol-5-yl)-6-(trifluoromethyl)nicotinamide] | 100 | – | – | – | – | –
Cn1nnc(COCc2nc(C(F)(F)Cl)ccc2C(=O)Nc2nnnn2C)n1 [Compound No. 2-78, 6-(chlorodifluoromethyl)-N-(1-methyl-1H-tetrazol-5-yl)-2-(((2-methyl-2H-tetrazol-5-yl)methoxy)methyl)nicotinamide] | – | 90 | – | – | – | 95
Cn1nnc(COCc2nc(C(F)(F)F)ccc2C(=O)N(c2nnnn2C)S(C)(=O)=O)n1 [Compound No. 2-69, N-(1-methyl-1H-tetrazol-5-yl)-2-(((2-methyl-2H-tetrazol-5-yl)methoxy)methyl)-N-(methylsulfonyl)-6-(trifluoromethyl)nicotinamide] | – | 98 | – | – | – | 95
Cn1nc(COCc2nc(C(F)(F)F)ccc2C(=O)Nc2nnnn2C)nc1C#N [Compound No. 2-134, 2-(((5-cyano-1-methyl-1H-1,2,4-triazol-3-yl)methoxy)methyl)-N-(1-methyl-1H-tetrazol-5-yl)-6-(trifluoromethyl)nicotinamide] | 100 | – | – | – | – | –
Cn1ncnc1COCc1nc(C(F)(F)F)ccc1C(=O)Nc1nnnn1C [Compound No. 1-102, 2-(((1-methyl-1H-1,2,4-triazol-5-yl)methoxy)methyl)-N-(1-methyl-1H-tetrazol-5-yl)-6-(trifluoromethyl)nicotinamide] | – | 70 | – | – | – | 95
